Measured values taken from patent US20040018582A1, “Genes and gene products that confer susceptibility to vancomycin derivative antibiotics and methods and assays for identifying bifunctional glycopeptide antibiotics using same” (priority 2001, published 2004).
≈ marks a conversion by molar mass, not a printed value.

Assays:
Format in all cases: cell-based, Escherichia coli
[1] = system: wild-type strain BE100 (E. coli imp); experiment: MIC, standard microdilution in LB medium; conditions: 35° C., 22 hours
Description: (§1) The imp mutation alters the permeability of the outer membrane and confers sensitivity to vancomycin and its carbohydrate derivatives as well as to moenomycin. BE100 is an isolate of BAS849 (MC4100 ΔlamB106 imp 4213). B. A. Sampson et al., Genetics 122, 491(1989).
(§2) MICs were determined against strains grown in LB medium in a standard microdilution format.

mutant strain BE103 = experiment: MIC, standard microdilution in LB medium; conditions: 35° C., 22 hours
Description: as §1, §2

mutant strain BE101 [2] = experiment: MIC, standard microdilution in LB medium; conditions: 35° C., 22 hours
Description: as §1, §2

mutant strain BE102 = experiment: MIC, standard microdilution in LB medium; conditions: 35° C., 22 hours
Description: as §1, §2

[3] = system: mutant strains BE101, BE102, BE103 compared to wild-type BE100; experiment: Comparison of antibiotic effectiveness in mutant (yfgL) strains versus wild-type strain; conditions: for resistance or sensitivity of the mutants: mutants vs parent strain BE100, by MIC
Description: The present inventions are directed to methods of identifying a compound having transglycosylase inhibitory activity. The method includes contacting the compound with cells having the wild type yfgL gene and then measuring the antibiotic effectiveness and contacting the compound with cells having the mutant yfgL gene and measuring the antibiotic effectiveness the compound.
as §2
Some antibiotics, for example the β-lactams, show a decrease in their bactericidal effectiveness against slow-growing cells. E. Tuomanen et al., J. Gen. Microbiol. 132, 1297 (1986). […] R. Kerns et al., J. Am. Chem. Soc. 122, 12608 (2000).
Examples of transpeptidase inhibitors include, but are not limited to, ampicillin, penicillin or cefoxitin (p-lactams). Compounds that inhibit cytoplasmic steps of peptidoglycan synthesis include, but are not limited to, fosfomycin and cycloserine.

wild-type BE100 = experiment: Time-kill curves at MIC; conditions: wild-type BE100, vancomycin 0.8 μg/ml
Description: (§3) FIGS. 1C and 1D represent time-kill curves of wild-type BE100 (C) and mutant strain BE101 (D) in the presence of antibiotics at their MICs. A standard microdilution assay was performed in LB. Samples were removed and serial dilutions were plated onto antibiotic-free agar after 15, 30, 60, 120 and 240 minutes of exposure to each antibiotic.

mutant strain BE101 [4] = experiment: Time-kill curves at MIC; conditions: mutant BE101, vancomycin […]
Description: as §3

Molecule | minimum inhibitory concentration (MIC) [1] | minimum inhibitory concentration (MIC) (mutant strain BE103) | minimum inhibitory concentration (MIC) (mutant strain BE101 [2]) | minimum inhibitory concentration (MIC) (mutant strain BE102) | resistance or sensitivity of the mutants [3] | survival on exposure at MIC (wild-type BE100) | survival on exposure at MIC (mutant strain BE101 [4]) | times less active in resistant strains compared to the wild-type strain ([3]; all three resistant strains vs wild-type) | step of peptidoglycan synthesis blocked, found using wild type/mutant yfgL assay [3]
CC1(C)S[C@@H]2[C@H](NC(=O)Cc3ccccc3)C(=O)N2[C@H]1C(=O)O [Penicillin G] | 3.2 µg/mL (≈ 9.57 µM) | 3.2 µg/mL (≈ 9.57 µM) | 3.2 µg/mL (≈ 9.57 µM) | 1.6 µg/mL (≈ 4.78 µM) |  |  |  |  | 
gentamicin |  |  |  |  | sensitive |  |  |  | 
CN[C@H](CC(C)C)C(=O)N[C@H]1C(=O)N[C@@H](CC(N)=O)C(=O)N[C@H]2C(=O)N[C@H]3C(=O)N[C@H](C(=O)N[C@H](C(=O)O)c4cc(O)cc(O)c4-c4cc3ccc4O)[C@H](O)c3ccc(c(Cl)c3)Oc3cc2cc(c3O[C@@H]2O[C@H](CO)[C@@H](O)[C@H](O)[C@H]2O[C@H]2C[C@](C)(N)[C@H](O)[C@H](C)O2)Oc2ccc(cc2Cl)[C@H]1O [Vancomycin] | 0.8 µg/mL (≈ 0.552 µM) | 1.6 µg/mL (≈ 1.1 µM) | 1.6 µg/mL (≈ 1.1 µM) | 1.6 µg/mL (≈ 1.1 µM) | did not show any resistance | prevented growth of all the strains but did not kill them | prevented growth of all the strains but did not kill them |  | 
Moenomycin | 0.03 µg/mL | 3.2 µg/mL | 1.6 µg/mL | 0.8 µg/mL |  |  |  | 27-100 times | 
Teicoplanin | 0.25 µg/mL | 4 µg/mL | 16 µg/mL | 3 µg/mL | resistant |  |  |  | block the transglycosylation step of peptidoglycan synthesis
CC[C@H]1OC(=O)[C@H](C)[C@@H](O[C@H]2C[C@@](C)(OC)[C@@H](O)[C@H](C)O2)[C@H](C)[C@@H](O[C@@H]2O[C@H](C)C[C@H](N(C)C)[C@H]2O)[C@](C)(O)C[C@@H](C)C(=O)[C@H](C)[C@@H](O)[C@]1(C)O [erythromycin] |  |  |  |  | sensitive |  |  |  | 
Desleucyl chlorobiphenyl vancomycin | 25 µg/mL | >125 µg/mL | >125 µg/mL | >125 µg/mL |  |  |  |  | 
